What all share (format): cell-based
Experiment [1] has as its system primary human fibroblasts derived from IPF patients (LL29 cells). The experiment can be described thus: Inhibition of fibrotic process: αSMA staining in TGF-β1 treated LL29 fibroblasts. The conditions noted are these: Fibroblast, 96 h, TGF-β1 20 ng/mL, 4 days, % cells positive for αSMA. An excerpt:
Representative compounds were screened using primary human fibroblasts (derived from IPF patients) treated with TGF-β1 to determine their ability to inhibit the fibrotic process.
Human Fibroblast Cell Culture: Primary human fibroblasts derived from IPF patients (LL29 cells) [^1Xiaoqiu Liu, et. al., “Fibrotic Lung Fibroblasts Show Blunted Inhibition by cAMP Due to Deficient cAMP Response Element-Binding Protein Phosphorylation”, Journal of Pharmacology and Experimental Therapeutics (2005), 315(2), 678-687; ^2Watts, K. L., et. al., “RhoA signaling modulates cyclin D1 expression in human lung fibroblasts; implications for idiopathic pulmonary fibrosis”, Respiratory Research (2006), 7(1), 88] were obtained from American Type Culture Collection (ATCC) and expanded in F12 medium supplemented with 15% Fetal Bovine Serum and Penicillin/Streptomycin.
Compound Screening: Each compound was dissolved in DMSO as a 10 mM stock and used to prepare compound source plates. Serial dilution (1:2, 11-point dose-response curves from […]) and compound transfer was performed using the ECHO 550 (Labcyte, Sunnyvale, Calif.) into 384-well clear bottom assay plates (Greiner Bio-One) with appropriate DMSO backfill for a final DMSO concentration of 0.1%. LL29 cells are plated at 1,500 cells/well in 80 μL/well F12 medium supplemented with 1% Fetal Bovine Serum. One hour after addition of the cells, TGF-β1 (Peprotech; 20 ng/mL) was added to the plates to induce fibrosis (ref. 1 and 2 above). Wells treated with TGF-β1 and containing DMSO were used as controls. Cells were incubated at 37° C. and 5% CO2 for 4 days. Following incubation for 4 days, SYTOX green nucleic acid stain (Life Technologies [Thermo Fisher Scientific]) was added to the wells at a final concentration of 1 μM and incubated at room temperature for 30 min. Cells were then fixed using 4% formaldehyde (Electron Microscopy Sciences), washed 3 times with PBS followed by blocking and permeabilization using 3% Bovine Serum Albumin (BSA; Sigma) and 0.3% Triton X-100 (Sigma) in PBS. Cells were then stained with antibody specific to α-smooth muscle actin (αSMA; Abcam) (ref. 1 and 2 above) in 3% Bovine Serum Albumin (BSA; Sigma) and 0.3% Triton X-100 (Sigma) in PBS, and incubated overnight at 4° C. Cells were then washed 3 times with PBS, followed by incubation with Alexa Flor-647 conjugated secondary antibody (Life Technologies [Thermo Fisher Scientific]) and DAPI at room temperature for 1 hour. Cells were then washed 3 times with PBS and plates were sealed for imaging. αSMA staining was imaged by excitation at 630 nm and emission at 665 nm and quantified using the Compartmental Analysis program on the CellInsight CX5 (Thermo Scientific). Dead or apoptotic cells were excluded from analysis based on positive SYTOX green staining. % of total cells positive for αSMA were counted in each well and normalized to the average of 11 wells treated with TGF-β1 on the same plate using Dotmatics' Studies Software. The normalized averages (fold change over untreated) of 3 replicate wells for each compound concentration were used to create dose-responses curves and EC50 values were calculated using non-linear regression curve fit in the Dotmatics' Studies Software. For EC50 of >10 μM, the percent inhibition at 10 μM is provided.

The subject of the next experiment is IL-6. Nature of the experiment: IL-6 inhibition in LPS-stimulated THP-1 cells (HTRF). The conditions noted are these: Homo sapiens, LPS 500 ng/mL, 22 hours, IL6 HTRF. As to the method: Human Monocyte Cell Culture: Human monocyte cell line (THP-1 cells; Catalog # TIB-202, ATCC, Manassas, Va.) were cultured in Roswell Park Memorial Institute (RPMI) 1640 Medium (Catalog #21870-100, Buffalo, N.Y.) with 1% L-glutamine, 1% HEPES, 1% Sodium Pyruvate, 2% Sodium Bicarbonate supplemented with 100 units/mL penicillin, 50 μg/mL streptomycin, 2-mercaptoethanol (0.05 mM) [basal medium] and 10% fetal bovine serum (Catalog #16140089, Life Technologies, Carlsbad, Calif.) at 37° C. and 5% CO2.
Compound Screening: THP-1 cells were cultured in basal media with 1% FBS for 24 hours before the start of the assay. Each compound was dissolved in DMSO as a 10 mM stock and used to prepare compound source plates. Serial dilution (1:3, 10-point dose-response curves starting from 1 μM) and compound transfer was performed using the ECHO 550 (Labcyte, Sunnyvale, Calif.) into 384-well white low volume assay plates (Greiner Bio-One) with appropriate DMSO backfill for a final DMSO concentration of 0.1%. THP-1 cells were plated at 5000 cells/well in the 384-well plates and incubated at 37° C. for 2 h. 500 ng/mL of LPS was added after 2 hours and cells were incubated for another 22 hours at 37° C. Plates were spun in a centrifuge for 1 minute at 10,000 rpm and a mixture of anti-IL6 XL665, and anti-IL6 Cryptate diluted in reconstitution buffer (Cisbio Inc.) was added to each well. Following incubation for 3 hrs at room temperature, Homogeneous Time-Resolved Fluorescence (HTRF) was measured using the Envision (Perkin Elmer) at 665 nm and […]. The ratio of fluorescence at 665 nm to 620 nm was used as a readout for IL6 quantification. All samples were processed in duplicate. Readings were normalized to DMSO treated cells and normalized activities were utilized for EC50 calculations using the dose-response log (inhibitor) vs. response-variable slope (four parameters) nonlinear regression feature available in GraphPad Prism 5.0 (or Dotmatics). For EC50 of >10 μM, the percent inhibition at 10 μM is provided.

The subject of experiment [2] is Wnt activity (Sp5-Luc reporter, SW480 colon carcinoma cells). The experiment can be described thus: Sp5-Luc reporter gene screening assay for Wnt activity in SW480 cells. The conditions noted are these: Homo sapiens, luminescence, overnight incubation. An excerpt:
The screening assay for Wnt activity is described as follows. Reporter cell lines can be generated by stably transducing cancer cell lines (e.g., colon cancer) or primary cells (e.g., IEC-6 intestinal cells) with a lentiviral construct that includes a Wnt-responsive promoter driving expression of the firefly luciferase gene.
SW480 colon carcinoma cells were transduced with a lentiviral vector expressing luciferase with a human Sp5 promoter consisting of a sequence of eight TCF/LEF binding sites. SW480 cells stably expressing the Sp5-Luc reporter gene and a hygromycin resistance gene were selected by treatment with 150 μg/mL of hygromycin for 7 days. These stably transduced SW480 cells were expanded in cell culture and used for all further screening activities. Each compound was dissolved in DMSO as a 10 mM stock and used to prepare compound source plates. Serial dilution (1:3, 10-point dose-response curves starting from 10 μM) and compound transfer was performed using the ECHO 550 (Labcyte, Sunnyvale, Calif.) into 384-well white solid bottom assay plates (Greiner Bio-One) with appropriate DMSO backfill for a final DMSO concentration of 0.1%. For Sp5-Luc reporter gene assays, the cells were plated at 4,000 cells/well in 384-well plates with medium containing 1% fetal bovine serum and incubated overnight at 37° C. and 5% CO2. Following incubation, 20 μl of BrightGlo luminescence reagent (Promega) was added to each well of the 384-well assay plates. The plates were placed on an orbital shaker for 2 min and then luminescence was quantified using the Envision (Perkin Elmer) plate reader. Readings were normalized to DMSO only treated cells, and normalized activities were utilized for EC50 calculations using the dose-response log (inhibitor) vs. response-variable slope (four parameters) nonlinear regression feature available in GraphPad Prism 5.0 (or Dotmatics). For EC50 of >10 μM, the percent inhibition at 10 μM is provided.

Another experiment relates to SW480 colon cancer cells. Nature of the experiment: Cell viability assay (CellTiter-Blue) in SW480 colon cancer cells. The conditions noted are these: Homo sapiens, 96 h, four days, CellTiter-Blue. How it is done:
Representative compounds were screened using the following assay procedure to assess the effect on cell viability as described below.
Each compound was dissolved in DMSO as a 10 mM stock and used to prepare compound source plates. Serial dilution (1:3, 8-point dose-response curves from 10 μM to 0.0045 μM) and compound transfer was performed using the ECHO 550 (Labcyte, Sunnyvale, Calif.) into 96-well clear bottom, black-walled plates (Corning-Costar).
Approximately 2×10^3 SW480 colon cancer cells were seeded into each well and allowed to incubate in the presence or absence of compound for four days at 37° C./5% CO2. Eight replicates of DMSO-treated cells served as controls and cells treated with compound were performed in duplicate.
After incubation, 20 μL of CellTiter-Blue (Promega) was added to each well allowed to incubate for approximately 3 hours. This reagent was a buffered solution which contains resazurin, metabolically active cells were able to reduce rezarurin (blue) into resorufin (pink) which was highly fluorescent. This measured fluorescence was used as a readout for cell viability.
After incubation, the plates were read at Ex 560 nm Em 590 nm (Cytation 3, BioTek). Dose-response curves were generated and EC50 concentration values were calculated using non-linear regression curve fit in the GraphPad Prism (San Diego, Calif.) or Dotmatics' Studies Software (Bishops Stortford, UK). For EC50 of >10 μM, the percent inhibition at 10 μM is provided.

`c1cc2[nH]c(-c3n[nH]c4ccc(-c5cncc(OC6CCCCC6)c5)nc34)cc2c(-c2ccoc2)n1` [Compound 687, 5-(5-(Cyclohexyloxy)pyridin-3-yl)-3-(4-(furan-3-yl)-1H-pyrrolo[3,2-c]pyridin-2-yl)-1H-pyrazolo[4,3-b]pyridine]: the EC50 in experiment [1] amounted to 452 nM; in the experiment on IL-6 it was 9020 nM; in experiment [2], 1010 nM; in the experiment on SW480 colon cancer cells it was 555 nM.

Take `CN1CCN(c2nccc3[nH]c(-c4n[nH]c5ccc(-c6cncc(NC(=O)CC(C)(C)C)c6)nc45)cc23)CC1` [Compound 240, 3,3-Dimethyl-N-(5-(3-(4-(4-methylpiperazin-1l-yl)-1H-pyrrolo[3,2-c]pyridin-2-yl)-1H-pyrazolo[4,3-b]pyridin-5-yl)pyridin-3-yl)butanamide]: the EC50 worked out at 1010 nM in experiment [1], 418 nM in the experiment with IL-6, 3510 nM in experiment [2] and 3570 nM in the experiment on SW480 colon cancer cells.

The record behind these values is patent publication US10231956B2, “3-(1H-pyrrolo[3,2-C]pyridin-2-YL)-1 H-pyrazolo[4,3-B]pyridines and therapeutic uses thereof” (Samumed, LLC, priority 2015, dated 2019).
